Measured values from ChEMBL document CHEMBL5257037, “Side Chain Cyclized Aromatic Amino Acids: Great Tools as Local Constraints in Peptide and Peptidomimetic Design” (J Med Chem, 2016).
pIC50, pKi: −log10 of the molar value. Values belong to the compound of their own block, whether it stands above or below them. *1 amine or outer side, *2 acyl side, *3 side chain or, on linkers, in order; H or OH if unused. Where a SMILES comes first, the peptide text is derived from it. [ ]: non-standard residue; d: D form. Gly(9-fluorenyl) = N[C@H](C(=O)O)C1c2ccccc2-c2ccccc21; X1 = O=C([C@@H](N[*:1])[C@H]1CCc2ccccc21)[*:2]; Tic = O=C(O)[C@@H]1Cc2ccccc2CN1

What was measured:
[1] = target: T1, B2 bradykinin receptor (Homo sapiens, UniProt P30411); assay: Antagonist potency at B2 bradykinin receptor (unknown origin); details: read-out: pA2 (converted)
T1 sequence (P30411 whole entry): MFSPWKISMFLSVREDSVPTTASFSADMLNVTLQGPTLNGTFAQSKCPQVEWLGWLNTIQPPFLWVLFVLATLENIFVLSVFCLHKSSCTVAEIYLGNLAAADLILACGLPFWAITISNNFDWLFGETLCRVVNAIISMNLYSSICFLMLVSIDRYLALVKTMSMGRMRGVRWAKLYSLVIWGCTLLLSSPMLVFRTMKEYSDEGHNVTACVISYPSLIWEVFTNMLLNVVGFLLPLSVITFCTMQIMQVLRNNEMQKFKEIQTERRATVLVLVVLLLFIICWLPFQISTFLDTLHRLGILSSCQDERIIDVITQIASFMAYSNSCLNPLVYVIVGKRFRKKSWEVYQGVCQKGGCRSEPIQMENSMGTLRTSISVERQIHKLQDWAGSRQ

[2] = target: T1, B2 bradykinin receptor; assay: Binding affinity to B2 bradykinin receptor (unknown origin); details: for pKi: read-out: Ki; for Ki: read-out: pKi (converted)
[3] = target: T2, Angiotensin-converting enzyme (Homo sapiens, UniProt P12821); assay: Inhibition of angiotensin-converting enzyme (unknown origin)
[4] = target: Neprilysin (Homo sapiens, UniProt P08473); assay: Binding affinity to neutral endopeptidase (unknown origin) assessed as inhibition constant
[5] = target: T2, Angiotensin-converting enzyme; assay: Binding affinity to angiotensin-converting enzyme (unknown origin) assessed as inhibition constant
[6] = Inhibition of farnesyltransferase (unknown origin); parameters: species or system Homo sapiens
[7] = target: Substance-P receptor (Rattus norvegicus, UniProt P14600); assay: Inhibition of [125I]BHSP binding to neurokinin receptor 1 in rat brain synaptosomes; assay type: subcellular, Synaptosome

Compound: N=C(N)NCCC[C@@H](N)C(=O)N[C@@H](CCCNC(=N)N)C(=O)N1CCC[C@H]1C(=O)N1C[C@H](O)C[C@H]1C(=O)NCC(=O)N[C@@H](Cc1cccs1)C(=O)N[C@H]1CSSC[C@@H](C(=O)N[C@@H](CCCNC(=N)N)C(=O)O)NC(=O)[C@H](Cc2ccccc2)NC(=O)[C@H](Cc2ccccc2)NC1=O
Kb [1]: 3980 nM
pKi [2]: 6.06

Compound: CCOC(=O)[C@H](CCc1ccccc1)N[C@@H](C)C(=O)N1[C@H](C(=O)O)C[C@@H]2CCC[C@@H]21
pIC50 [3]: 8.38

Compound: N=C(N)NCCC[C@@H](N)C(=O)N[C@@H](CCCNC(=N)N)C(=O)N1CCC[C@H]1C(=O)N1C[C@H](O)C[C@H]1C(=O)NCC(=O)N[C@@H](Cc1cccs1)C(=O)N[C@@H](CO)C(=O)N1Cc2ccccc2C[C@@H]1C(=O)N1Cc2ccccc2C[C@@H]1C(=O)N[C@@H](CCCNC(=N)N)C(=O)O
Kb [1]: 2510 nM
pKi [2]: 6.24

Compound: H-RPKEQFFGIM-OH
pIC50 [7]: 9.19

Compound: CC(C)C[C@@H](C(=O)O)N1CCO[C@@H](c2ccccc2)[C@H](NC(=O)[C@@H](S)Cc2ccccc2)C1=O
pKi [4]: 6.48
pKi [5]: 4.30

Compound: N=C(N)NCCC[C@@H](N)C(=O)N[C@@H](CCCNC(=N)N)C(=O)N1CCC[C@H]1C(=O)N1C[C@H](O)C[C@H]1C(=O)NCC(=O)N[C@@H](Cc1cccs1)C(=O)N[C@@H](CO)C(=O)N1CCC[C@]12Cc1ccccc1CN(CC(=O)N[C@@H](CCCNC(=N)N)C(=O)O)C2=O
Kb [1]: 3160 nM
Ki [2]: 25.1 nM

Compound: CC[C@H](C)[C@H](NC(=O)CNC(=O)[C@@H](NC(=O)[C@H](Cc1ccccc1)NC(=O)[C@H](CCC(N)=O)NC(=O)[C@H](CCC(=O)O)NC(=O)[C@H](CCCCN)NC(=O)[C@@H]1CCCN1C(=O)[C@@H](N)CCCNC(=N)N)C1c2ccccc2-c2ccccc21)C(=O)N[C@@H](CCSC)C(=O)O (H-RPKEQF[Gly(9-fluorenyl)]GIM-OH)
pIC50 [7]: 8.52

Compound: N=C(N)NCCC[C@@H](N)C(=O)N[C@@H](CCCNC(=N)N)C(=O)N1CCC[C@H]1C(=O)N1C[C@H](O)C[C@H]1C(=O)NCC(=O)N[C@@H](Cc1cccs1)C(=O)N[C@@H](CO)C(=O)N[C@H]1Cc2ccccc2CN(CC(=O)N[C@@H](CCCNC(=N)N)C(=O)O)C1=O
Ki [2]: 200 nM

Compound: CSCC[C@H](NC(=O)[C@H]1Cc2ccccc2CN1C(=O)[C@@H](NC(=O)[C@H](CS)NC(=O)[C@@H](N)CCCCN)C(C)C)C(=O)O
pIC50 [6]: 4.00

Compound: CC[C@H](C)[C@H](NC(=O)CNC(=O)[C@H](Cc1ccccc1)NC(=O)[C@@H](NC(=O)[C@H](CCC(N)=O)NC(=O)[C@H](CCC(=O)O)NC(=O)[C@H](CCCCN)NC(=O)[C@@H]1CCCN1C(=O)[C@@H](N)CCCNC(=N)N)[C@H]1CCc2ccccc21)C(=O)N[C@@H](CCSC)C(=O)O (H-RPKEQ[X1]FGIM-OH)
pIC50 [7]: 8.52

Compound: C[C@H](N[C@@H](CCc1ccccc1)C(=O)O)C(=O)N1CCc2ccccc2[C@H]1C(=O)O
pIC50 [3]: 8.24

Compound: N=C(N)NCCC[C@@H](N)C(=O)N[C@@H](CCCNC(=N)N)C(=O)N1CCC[C@H]1C(=O)N1C[C@H](O)C[C@H]1C(=O)NCC(=O)N[C@@H](Cc1cccs1)C(=O)N[C@@H](CO)C(=O)N1Cc2ccccc2C[C@@H]1C(=O)N1Cc2ccccc2C[C@H]1C(=O)N[C@@H](CCCNC(=N)N)C(=O)O
Kb [1]: 0.794 nM
pKi [2]: 9.42

Compound: N=C(N)NCCCC(NC(=O)CN1CCCCC2(CCCN2C(=O)[C@H](CO)NC(=O)[C@H](Cc2ccccc2)NC(=O)CNC(=O)[C@@H]2CCCN2C(=O)[C@@H]2CCCN2C(=O)[C@@H](N)CCCNC(=N)N)C1=O)C(=O)O (mixture of isomers; 68)
Ki [2]: 251 nM

Compound: O=C(O)CN1Cc2ccccc2C[C@H](N[C@@H](CCc2ccccc2)C(=O)O)C1=O
pKi [5]: 8.00

Compound: CSCC[C@H](NC(=O)[C@H](Cc1ccccc1)NC(=O)[C@@H](NC(=O)[C@H](CS)NC(C)=O)C(C)C)C(=O)O (Ac-CVFM-OH)
pIC50 [6]: 6.60

Compound: CSCC[C@H](NC(=O)[C@@H]1Cc2ccccc2CN1C[C@@H](NC(=O)[C@@H](N)CS)C(C)C)C(=O)O
pIC50 [6]: 9.43

Compound: CSCC[C@H](NC(=O)[C@@H]1Cc2ccccc2CN1C(=O)[C@@H](NC(=O)[C@H](CS)NC(=O)[C@@H](N)CCCCN)C(C)C)C(=O)O
pIC50 [6]: 7.70

Compound: N=C(N)NCCC[C@@H](N)C(=O)N[C@@H](CCCNC(=N)N)C(=O)N1CCC[C@H]1C(=O)N1C[C@H](O)C[C@H]1C(=O)NCC(=O)N[C@@H](Cc1cccs1)C(=O)N[C@@H](CO)C(=O)N1CCC[C@@]12Cc1ccccc1CN(CC(=O)N[C@@H](CCCNC(=N)N)C(=O)O)C2=O
Kb [1]: 2000 nM
Ki [2]: 3.16 nM

Compound: CSCC[C@H](NC(=O)[C@H]1Cc2ccccc2CN1C(=O)[C@@H]1CCCN1C(=O)[C@H](CS)NC(=O)[C@@H](N)CCCCN)C(=O)O
pIC50 [6]: 4.00

Compound: N=C(N)NCCCC(NC(=O)CN1CCCCC2(CCCN2C(=O)[C@H](CO)NC(=O)[C@H](Cc2ccccc2)NC(=O)CNC(=O)[C@@H]2CCCN2C(=O)[C@@H]2CCCN2C(=O)[C@@H](N)CCCNC(=N)N)C1=O)C(=O)O (mixture of isomers; 67)
Ki [2]: 1260 nM

Compound: N=C(N)NCCC[C@H](NC(=O)CN1Cc2ccccc2CC(NC(=O)[C@H](CO)NC(=O)[C@H](Cc2ccccc2)NC(=O)CNC(=O)[C@@H]2CCCN2C(=O)[C@@H]2CCCN2C(=O)[C@@H](N)CCCNC(=N)N)C1=O)C(=O)O (mixture of isomers)
Ki [2]: 794 nM

Compound: N=C(N)NCCCC(NC(=O)[C@@H]1C[C@@H]2CCC[C@@H]2N1C(=O)[C@H]1Cc2ccccc2CN1C(=O)[C@H](CO)NC(=O)[C@H](Cc1cccs1)NC(=O)CNC(=O)[C@@H]1C[C@@H](O)CN1C(=O)[C@@H]1CCCN1C(=O)[C@H](CCCNC(=N)N)NC(=O)[C@H](N)CCCNC(=N)N)C(=O)O (some centres undefined)
Kb [1]: 0.398 nM
pKi [2]: 9.74

Compound: CSCC[C@H](NC(=O)[C@@H]1Cc2ccccc2CN1C(=O)[C@@H](NC(=O)[C@H](CS)NC(C)=O)C(C)C)C(=O)O (Ac-CV[Tic]M-OH)
pIC50 [6]: 7.96

The next lines start with the values.

pKi [4]: < 8.00
pKi [5]: 11.40
Compound: O=C(O)[C@H](CCc1ccccc1)N[C@H]1Cc2ccccc2[C@H]2CCC[C@@H](C(=O)O)N2C1=O

pIC50 [3]: 8.44
Compound: CCC[C@H](N[C@@H](C)C(=O)N1[C@H](C(=O)O)C[C@@H]2CCCC[C@@H]21)C(=O)OCC [PERINDOPRIL]

pIC50 [6]: 9.22
Compound: CSCC[C@H](NC(=O)[C@@H]1Cc2ccccc2CN1C(=O)[C@@H](NC[C@@H](N)CS)C(C)C)C(=O)O

pKi [4]: 9.40
Compound: CC(C)C[C@@H](C(=O)O)N1Cc2ccccc2C[C@H](NC(=O)[C@@H](S)Cc2ccccc2)C1=O

pIC50 [6]: 6.00
Compound: H-KCVFM-OH

pIC50 [6]: 8.30
Compound: CSCC[C@H](NC(=O)[C@H]1Cc2ccccc2CN1C(=O)[C@H](C(C)C)N(C)C(=O)[C@H](CS)NC(=O)[C@@H](N)CCCCN)C(=O)O

Ki [2]: 2510 nM
Compound: N=C(N)NCCC[C@H](NC(=O)CN1Cc2ccccc2C[C@@H](NC(=O)[C@H](CO)NC(=O)[C@H](Cc2ccccc2)NC(=O)CNC(=O)[C@@H]2CCCN2C(=O)[C@@H]2CCCN2C(=O)[C@@H](N)CCCNC(=N)N)C1=O)C(=O)O

pIC50 [3]: 7.36
Compound: C[C@H](N[C@@H](CCc1ccccc1)C(=O)O)C(=O)N1Cc2ccccc2[C@H]1C(=O)O

pIC50 [7]: 5.92
Compound: CC[C@H](C)[C@H](NC(=O)CNC(=O)[C@@H]1Cc2ccccc2CN1C(=O)[C@H](Cc1ccccc1)NC(=O)[C@H](CCC(N)=O)NC(=O)[C@H](CCC(=O)O)NC(=O)[C@H](CCCCN)NC(=O)[C@@H]1CCCN1C(=O)[C@@H](N)CCCNC(=N)N)C(=O)N[C@@H](CCSC)C(=O)O (H-RPKEQF[Tic]GIM-OH)

Kb [1]: 2510 nM
Ki [2]: 316 nM
Compound: N=C(N)NCCC[C@@H](N)C(=O)N[C@@H](CCCNC(=N)N)C(=O)N1CCC[C@H]1C(=O)N1C[C@H](O)C[C@H]1C(=O)NCC(=O)N[C@@H](Cc1cccs1)C(=O)N[C@@H](CO)C(=O)N[C@@H]1Cc2ccccc2CN(CC(=O)N[C@@H](CCCNC(=N)N)C(=O)O)C1=O

Ki [2]: 501 nM
Compound: C[C@H](C(=O)N[C@@H](CCCNC(=N)N)C(=O)O)N1Cc2ccccc2C[C@@H](NC(=O)[C@H](CO)NC(=O)[C@H](Cc2ccccc2)NC(=O)CNC(=O)[C@@H]2CCCN2C(=O)[C@@H]2CCCN2C(=O)[C@@H](N)CCCNC(=N)N)C1=O

pIC50 [6]: 6.57
Compound: CSCC[C@H](NC(=O)C1CC=CCN1C(=O)[C@@H](NC[C@@H](N)CS)C(C)C)C(=O)O (some centres undefined)

pIC50 [3]: 8.77
Compound: O=C(O)CN1C(=O)[C@@H](N[C@@H](CCc2ccccc2)C(=O)O)CCc2ccccc21 [BENAZEPRILAT]

pIC50 [6]: 9.00
Compound: CSCC[C@H](NC(=O)[C@@H]1Cc2ccccc2CN1C(=O)[C@@H](NC(=O)[C@@H](N)CS)C(C)C)C(=O)O (H-CV[Tic]M-OH)

pKi [4]: 8.30
pKi [5]: 8.70
Compound: O=C(CS)N[C@H]1Cc2ccccc2[C@H]2CCC[C@@H](C(=O)O)N2C1=O

pIC50 [7]: 5.62
Compound: CC[C@H](C)[C@H](NC(=O)CNC(=O)[C@H](Cc1ccccc1)NC(=O)[C@@H]1Cc2ccccc2CN1C(=O)[C@H](CCC(N)=O)NC(=O)[C@H](CCC(=O)O)NC(=O)[C@H](CCCCN)NC(=O)[C@@H]1CCCN1C(=O)[C@@H](N)CCCNC(=N)N)C(=O)N[C@@H](CCSC)C(=O)O (H-RPKEQ[Tic]FGIM-OH)
